Reference: patent publication US8309546B2, “Morpholinopurine derivatives” (Daiichi Sankyo Company, Limited, priority 2008, dated 2012)

How the values were obtained:
[1] = biological target: T1, human mTOR (His-tagged mTOR (1362C)) (Homo sapiens, UniProt P42345); assay: mTOR kinase activity inhibition assay; assay type: biochemical; settings: HTRF, read-out: IC50 against mTOR
T1 construct: the 1362 to 2549 amino acid portion on the C terminus side of human mTOR; His tag (N); made in house
Outline: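 Crude His-tagged mTOR (aa 1362–2549) from stable HEK293 cells, with 8 μg/ml biotinylated peptide in 50 mM HEPES pH 7.5, 20 mM MnCl2; compound diluted in 20 μM ATP solution, reaction 3 h at room temperature. Phospho-peptide detected by HTRF (anti-phospho-S6K Thr389 cryptate/streptavidin-XL665, overnight at 4°C), 665/620 nm ratio. IC50 derived from curve fit of % inhibition.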

[2] = tested on: human ovary cancer cell strain IGROV1; assay: Cell growth inhibition test (MTT), IGROV1; assay type: cell-based; settings: IGROV-1, 72 h, IGROV1, 3 days culture, read-out: concentration exhibiting anti-cell effect (GI50)
Outline: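 Each cell strain is exposed to serially diluted compound for 3 days (37° C, 5% CO2), added one day after seeding at 5000 (AN3CA, HT29) or 1000 (IGROV1) cells/well. Living cells are quantified by MTT reduction over 4 h, absorbance at 540 nm, giving GI50 at 50% growth rate.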

T1 sequence (P42345 1362-2549): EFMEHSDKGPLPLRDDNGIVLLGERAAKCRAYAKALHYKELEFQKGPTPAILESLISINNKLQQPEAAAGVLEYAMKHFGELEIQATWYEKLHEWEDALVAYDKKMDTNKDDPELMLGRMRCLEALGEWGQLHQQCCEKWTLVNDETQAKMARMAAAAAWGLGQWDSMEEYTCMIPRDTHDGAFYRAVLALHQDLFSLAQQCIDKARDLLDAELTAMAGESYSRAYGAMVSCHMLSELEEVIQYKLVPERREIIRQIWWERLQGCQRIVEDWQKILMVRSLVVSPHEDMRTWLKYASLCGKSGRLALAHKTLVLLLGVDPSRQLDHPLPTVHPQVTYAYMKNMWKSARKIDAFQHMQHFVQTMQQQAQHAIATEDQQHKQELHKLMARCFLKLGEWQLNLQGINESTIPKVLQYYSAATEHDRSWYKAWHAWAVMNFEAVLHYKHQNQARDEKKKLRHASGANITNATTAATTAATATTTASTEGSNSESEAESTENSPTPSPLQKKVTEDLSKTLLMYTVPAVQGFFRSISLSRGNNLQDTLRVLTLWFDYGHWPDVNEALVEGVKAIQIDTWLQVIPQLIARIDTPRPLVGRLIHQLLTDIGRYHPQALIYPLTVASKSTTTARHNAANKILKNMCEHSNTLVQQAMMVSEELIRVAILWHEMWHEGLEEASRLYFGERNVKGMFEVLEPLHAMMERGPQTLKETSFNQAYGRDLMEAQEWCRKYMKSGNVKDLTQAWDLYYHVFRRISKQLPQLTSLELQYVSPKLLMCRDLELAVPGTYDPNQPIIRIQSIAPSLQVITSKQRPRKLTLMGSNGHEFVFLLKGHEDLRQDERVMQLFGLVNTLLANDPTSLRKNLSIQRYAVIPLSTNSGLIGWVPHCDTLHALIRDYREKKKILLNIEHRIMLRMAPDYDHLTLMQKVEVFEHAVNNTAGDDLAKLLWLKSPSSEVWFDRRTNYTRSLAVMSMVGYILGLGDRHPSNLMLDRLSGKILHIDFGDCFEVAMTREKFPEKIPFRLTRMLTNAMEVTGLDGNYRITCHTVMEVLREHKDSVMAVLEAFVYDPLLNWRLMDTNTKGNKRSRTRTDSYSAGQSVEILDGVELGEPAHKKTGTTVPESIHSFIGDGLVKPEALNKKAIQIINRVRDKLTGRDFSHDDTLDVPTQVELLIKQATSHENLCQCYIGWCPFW

## CC(C)Cn1c(N2CCN(C(=O)C[C@H](C)O)[C@H](C)C2)nc2c(N3CCOCC3)nc(-c3cnc(N)nc3)nc21 [Example 86, (2S)-4-{(2R)-4-[2-(2-Aminopyrimidin-5-yl)-9-isobutyl-6-morpholin-4-yl-9H-purin-8-yl]-2-methylpiperazin-1-yl}-4-oxobutan-2-ol]
[1]
  IC50: 10 to 30 nM
[2]
  GI50: ≤ 5000 nM

## CC(=O)C(=O)N1CCN(c2nc3c(N4CCOCC4)nc(-c4cnc(N)nc4)nc3n2CC(F)(F)F)CC1 [Example 65, 1-{4-[2-(2-Aminopyrimidin-5-yl)-6-morpholin-4-yl-9-(2,2,2-trifluoroethyl)-9H-purin-8-yl]piperazin-1-yl}-1-oxoacetone]
[1]
  IC50: < 10 nM
[2]
  GI50: ≤ 5000 nM

## CC[C@H]1CN(c2nc3c(N4CCOCC4)nc(-c4cnc(N)nc4)nc3n2CC(F)(F)F)CCN1S(C)(=O)=O [Example 76, 5-{8-[(3S)-3-Ethyl-4-(methylsulfonyl)piperazin-1-yl]-6-morpholin-4-yl-9-(2,2,2-trifluoroethyl)-9H-purin-2-yl}pyrimidin-2-amine]
[1]
  IC50: < 10 nM
[2]
  GI50: ≤ 5000 nM

## CC(=O)N1CCN(c2nc3c(N4CCOC[C@@H]4C)nc(-c4cnc(N)nc4C)nc3n2CC2CC2)CC1 [Example 128, 5-{8-(4-acetylpiperazin-1-yl)-9-(cyclopropylmethyl)-6-[(3S)-3-methylmorpholin-4-yl]-9H-purin-2-yl}-4-methylpyrimidin-2-amine]
[1]
  IC50: 100 to 500 nM
[2]
  GI50: ≤ 5000 nM

## CC(C)Cn1c(N2CCN(C(=O)C[C@@H](C)O)[C@H](C)C2)nc2c(N3CCOCC3)nc(-c3cnc(N)nc3)nc21 [Example 84, (2R)-4-{(2R)-4-[2-(2-Aminopyrimidin-5-yl)-9-isobutyl-6-morpholin-4-yl-9H-purin-8-yl]-2-methylpiperazin-1-yl}-4-oxobutan-2-ol]
[1]
  IC50: 10 to 30 nM
[2]
  GI50: ≤ 5000 nM

## CC(=O)N1CCN(c2nc3c(N4CCOCC4)nc(-c4cnc(N)nc4)nc3n2CC(F)(F)F)CC12CC2 [Example 119, 5-[8-(4-Acetyl-4,7-diazaspiro[2.5]oct-7-yl)-6-morpholin-4-yl-9-(2,2,2-trifluoroethyl)-9H-purin-2-yl]pyrimidin-2-amine]
[1]
  IC50: 10 to 30 nM
[2]
  GI50: ≤ 5000 nM

## CC(C)Cn1c(N2CCN(C(=O)[C@H](C)O)[C@@H](C)C2)nc2c(N3CCOCC3)nc(-c3cnc(N)nc3)nc21 [Example 104, (2S)-1-{(2S)-4-[2-(2-Aminopyrimidin-5-yl)-9-isobutyl-6-morpholin-4-yl-9H-purin-8-yl]-2-methylpiperazin-1-yl}-1-oxopropan-2-ol]
[1]
  IC50: 10 to 30 nM
[2]
  GI50: ≤ 5000 nM

## CC(C)Cn1c(N2CCN(C(=O)C[C@H](C)O)CC2)nc2c(N3CCOCC3)nc(-c3cnc(N)nc3)nc21 [Example 82, (2S)-4-{4-[2-(2-Aminopyrimidin-5-yl)-9-isobutyl-6-morpholin-4-yl-9H-purin-8-yl]piperazin-1-yl}-4-oxobutan-2-ol]
[1]
  IC50: 10 to 30 nM
[2]
  GI50: ≤ 5000 nM

## CC(C)Cn1c(N2CCN(C(=O)[C@H](C)O)CC2)nc2c(N3CCOC[C@@H]3C)nc(-c3cnc(N)nc3)nc21 [Example 131, (2S)-1-(4-{2-(2-Aminopyrimidin-5-yl)-9-isobutyl-6-[(3S)-3-methylmorpholin-4-yl]-9H-purin-8-yl}piperazin-1-yl)-1-oxopropan-2-ol]
[1]
  IC50: 10 to 30 nM
[2]
  GI50: ≤ 5000 nM

## C[C@@H]1CN(c2nc3c(N4CCOCC4)nc(-c4cnc(N)nc4)nc3n2CC2CC2)CCN1C(=O)[C@@H](C)O [Example 114, (2R)-1-{(2R)-4-[2-(2-Aminopyrimidin-5-yl)-9-(cyclopropylmethyl)-6-morpholin-4-yl-9H-purin-8-yl]-2-methylpiperazin-1-yl}-1-oxopropan-2-ol]
[1]
  IC50: 10 to 30 nM
[2]
  GI50: ≤ 5000 nM

## CC(C)Cn1c(N2CCN(C(=O)CO)CC2)nc2c(N3CCOC[C@@H]3C)nc(-c3cnc(N)nc3)nc21 [Example 130, 2-(4-{2-(2-Aminopyrimidin-5-yl)-9-isobutyl-6-[(3S)-3-methylmorpholin-4-yl]-9H-purin-8-yl}piperazin-1-yl)-2-oxoethanol]
[1]
  IC50: < 10 nM
[2]
  GI50: ≤ 5000 nM

## Nc1ncc(-c2nc(N3CCOCC3)c3nc(N4CCN(C=O)CC4)n(CC(F)(F)F)c3n2)cn1 [Example 71, 4-[2-(2-Aminopyrimidin-5-yl)-6-morpholin-4-yl-9-(2,2,2-trifluoroethyl)-9H-purin-8-yl]piperazine-1-carboaldehyde]
[1]
  IC50: < 10 nM
[2]
  GI50: ≤ 5000 nM

## C[C@H](O)CC(=O)N1CCN(c2nc3c(N4CCOCC4)nc(-c4cnc(N)nc4)nc3n2CC(F)(F)F)CC1 [Example 69, (2S)-4-{4-[2-(2-Aminopyrimidin-5-yl)-6-morpholin-4-yl-9-(2,2,2-trifluoroethyl)-9H-purin-8-yl]piperazin-1-yl}-4-oxobutan-2-ol]
[1]
  IC50: < 10 nM
[2]
  GI50: ≤ 5000 nM

## CC(=O)N1[C@H](C)CN(c2nc3c(N4CCOCC4)nc(-c4cnc(N)nc4)nc3n2CC(F)(F)F)C[C@@H]1C [Example 115, 5-[8-(4-Acetyl-cis-3,5-dimethylpiperazin-1-yl)-6-morpholin-4-yl-9-(2,2,2-trifluoroethyl)-9H-purin-2-yl]pyrimidin-2-amine]
[1]
  IC50: < 10 nM
[2]
  GI50: ≤ 5000 nM

## CNc1ncc(-c2nc(N3CCOCC3)c3nc(N4CCN(CC(=O)N(C)C)[C@H](C)C4)n(CC(F)(F)F)c3n2)cn1 [Example 87, N,N-Dimethyl-2-[(2R)-2-methyl-4-{2-[2-(methylamino)pyrimidin-5-yl]-6-morpholin-4-yl-9-(2,2,2-trifluoroethyl)-9H-purin-8-yl}piperazin-1-yl]acetamide]
[1]
  IC50: 10 to 30 nM
[2]
  GI50: ≤ 5000 nM

## C[C@H]1CN(c2nc3c(N4CCOCC4)nc(-c4cnc(N)nc4)nc3n2CC(F)(F)F)CCN1S(C)(=O)=O [Example 62, 5-{8-[(3S)-3-Methyl-4-(methylsulfonyl)piperazin-1-yl]-6-morpholin-4-yl-9-(2,2,2-trifluoroethyl)-9H-purin-2-yl}pyrimidin-2-amine]
[1]
  IC50: < 10 nM
[2]
  GI50: ≤ 5000 nM

## C[C@@H]1CN(c2nc3c(N4CCOCC4)nc(-c4cnc(N)nc4)nc3n2CC(F)(F)F)CCN1C=O [Example 112, (2R)-4-[2-(2-Aminopyrimidin-5-yl)-6-morpholin-4-yl-9-(2,2,2-trifluoroethyl)-9H-purin-8-yl]-2-methylpiperazine-1-carboaldehyde]
[1]
  IC50: < 10 nM
[2]
  GI50: ≤ 5000 nM

## C[C@H]1CN(c2nc3c(N4CCOCC4)nc(-c4cnc(N)nc4)nc3n2CC(F)(F)F)CCN1C=O [Example 111, (2S)-4-[2-(2-Aminopyrimidin-5-yl)-6-morpholin-4-yl-9-(2,2,2-trifluoroethyl)-9H-purin-8-yl]-2-methylpiperazine-1-carboaldehyde]
[1]
  IC50: < 10 nM
[2]
  GI50: ≤ 5000 nM

## CC(C)Cn1c(N2CCN(C(=O)[C@H](C)O)[C@H](C)C2)nc2c(N3CCOCC3)nc(-c3cnc(N)nc3)nc21 [Example 103, (2S)-1-{(2R)-4-[2-(2-Aminopyrimidin-5-yl)-9-isobutyl-6-morpholin-4-yl-9H-purin-8-yl]-2-methylpiperazin-1-yl}-1-oxopropan-2-ol]
[1]
  IC50: 10 to 30 nM
[2]
  GI50: ≤ 5000 nM

## CNc1ncc(-c2nc(N3CCOCC3)c3nc(N4CCN(S(C)(=O)=O)[C@H](C)C4)n(CC(F)(F)F)c3n2)cn1 [Example 106, N-Methyl-5-{8-[(3R)-3-methyl-4-(methylsulfonyl)piperazin-1-yl]-6-morpholin-4-yl-9-(2,2,2-trifluoroethyl)-9H-purin-2-yl}pyrimidin-2-amine]
[1]
  IC50: < 10 nM
[2]
  GI50: ≤ 5000 nM

## C[C@H](O)C(=O)N1CCN(c2nc3c(N4CCOCC4)nc(-c4cnc(N)nc4)nc3n2CC(F)(F)F)CC1 [Example 68, (2S)-1-{4-[2-(2-Aminopyrimidin-5-yl)-6-morpholin-4-yl-9-(2,2,2-trifluoroethyl)-9H-purin-8-yl]piperazin-1-yl}-1-oxopropan-2-ol]
[1]
  IC50: < 10 nM
[2]
  GI50: ≤ 5000 nM

## CC(C)Cn1c(N2CCN(C(=O)C[C@H](C)O)[C@@H](C)C2)nc2c(N3CCOCC3)nc(-c3cnc(N)nc3)nc21 [Example 85, (2S)-4-{(2S)-4-[2-(2-Aminopyrimidin-5-yl)-9-isobutyl-6-morpholin-4-yl-9H-purin-8-yl]-2-methylpiperazin-1-yl}-4-oxobutan-2-ol]
[1]
  IC50: < 10 nM
[2]
  GI50: ≤ 5000 nM

## CS(=O)(=O)C1CCN(c2nc3c(N4CCOCC4)nc(-c4cnc(N)nc4)nc3n2CC(F)(F)F)CC1 [Example 57, 5-{8-[4-(Methylsulfonyl)piperidin-1-yl]-6-morpholin-4-yl-9-(2,2,2-trifluoroethyl)-9H-purin-2-yl}pyrimidin-2-amine]
[1]
  IC50: < 10 nM
[2]
  GI50: ≤ 5000 nM

## C[C@@H](O)CC(=O)N1CCN(c2nc3c(N4CCOCC4)nc(-c4cnc(N)nc4)nc3n2CC(F)(F)F)CC1 [Example 70, (2R)-4-{4-[2-(2-Aminopyrimidin-5-yl)-6-morpholin-4-yl-9-(2,2,2-trifluoroethyl)-9H-purin-8-yl]piperazin-1-yl}-4-oxobutan-2-ol]
[1]
  IC50: < 10 nM
[2]
  GI50: ≤ 5000 nM

## CC(=O)N1[C@H](C)CN(c2nc3c(N4CCOCC4)nc(-c4cnc(N)nc4)nc3n2CC2CC2)C[C@@H]1C [Example 98, 5-{8-[4-Acetyl-cis-3,5-dimethylpiperazin-1-yl]-9-(cyclopropylmethyl)-6-morpholin-4-yl-9H-purin-2-yl}pyrimidin-2-amine]
[1]
  IC50: < 10 nM
[2]
  GI50: ≤ 5000 nM
